Results as given in the supplement of paper PMC10307832.

compound: C=CCn1c(=O)c2cnc(Nc3ccc(N4CCN(C)CC4)cc3)nc2n1-c1cccc(C(C)(C)O)n1 [Adavosertib] + CC1(C)CCC(c2ccc(Cl)cc2)=C(CN2CCN(c3ccc(C(=O)NS(=O)(=O)c4ccc(N[C@H](CCN5CCOCC5)CSc5ccccc5)c(S(=O)(=O)C(F)(F)F)c4)cc3)CC2)C1 [Navitoclax] (partner 0.5 µM); assay: relative viability (nuclei count vs DMSO), 5 days (fraction); higher = more cells survive; details: first compound 0.01 µM
How it was run: (§1)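 Values are medians from duplicate plates. Each reflects relative viability, defined as the nuclei count of treated wells over that of vehicle wells. Lung cancer cell lines in 1536-well plates were pin-tool dosed one day after seeding with one drug alone or with a fixed anchor-drug dose plus five library-drug doses (not always all listed) in √10 steps, then fixed, stained and imaged at 4× after 5 days.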

**Q.** With RERF-LC-KJ as the cell line, how does the relative viability read?
**A.** Its relative viability is 1.01.

**Q.** SK-LU-1 was tested. Which relative viability did it give?
**A.** Its relative viability is 0.759.

**Q.** How did the relative viability turn out when SK-MES-1 was run?
**A.** The relative viability was 1.17.

**Q.** For SW 1573, which relative viability is on record?
**A.** Its relative viability is 1.07.

**Q.** For UMC-11, which relative viability is on record?
**A.** Its relative viability is 0.311.

same assay, conditions: first compound 0.03162 µM

**Q.** Which relative viability does the source give for RERF-LC-KJ here?
**A.** Its relative viability is 0.751.

**Q.** With SK-LU-1 as the cell line, how does the relative viability read?
**A.** The relative viability was 0.594.

**Q.** For SK-MES-1, which relative viability is on record?
**A.** Its relative viability is 1.25.

**Q.** For SW 1573, which relative viability is on record?
**A.** Its relative viability is 0.988.

**Q.** How did the relative viability turn out when UMC-11 was run?
**A.** Its relative viability is 0.287.

same assay, conditions: first compound 0.1 µM

**Q.** For RERF-LC-KJ, which relative viability is on record?
**A.** The relative viability was 0.828.

**Q.** Which relative viability does the source give for SK-LU-1 here?
**A.** The relative viability was 0.989.

**Q.** How did the relative viability turn out when SK-MES-1 was run?
**A.** The relative viability was 1.31.

**Q.** With SW 1573 as the cell line, how does the relative viability read?
**A.** The relative viability was 1.29.

**Q.** Which relative viability does the source give for UMC-11 here?
**A.** The relative viability was 0.331.

same assay, conditions: first compound 0.3162 µM

**Q.** For RERF-LC-KJ, which relative viability is on record?
**A.** Its relative viability is 0.952.

**Q.** How did the relative viability turn out when SK-LU-1 was run?
**A.** The relative viability was 0.238.

**Q.** How did the relative viability turn out when SK-MES-1 was run?
**A.** The relative viability was 1.11.

**Q.** SW 1573 was tested. Which relative viability did it give?
**A.** The relative viability was 0.926.

**Q.** With UMC-11 as the cell line, how does the relative viability read?
**A.** Its relative viability is 0.321.

compound: COc1nc(N)nc2c1ncn2[C@@H]1O[C@H](CO)[C@@H](O)[C@@H]1O [Nelarabine] + COc1cc2c(Oc3ccc(NC(=O)C4(C(=O)Nc5ccc(F)cc5)CC4)cc3F)ccnc2cc1OCCCN1CCOCC1 [Foretinib] (partner 0.25 µM); assay: as above; details: first compound 0.01 µM
How it was run: as §1

**Q.** With RERF-LC-KJ as the cell line, how does the relative viability read?
**A.** The relative viability was 1.1.

**Q.** SK-LU-1 was tested. Which relative viability did it give?
**A.** The relative viability was 1.03.

**Q.** For SK-MES-1, which relative viability is on record?
**A.** Its relative viability is 1.07.

**Q.** For SW 1573, which relative viability is on record?
**A.** Its relative viability is 0.889.

**Q.** For UMC-11, which relative viability is on record?
**A.** The relative viability was 1.23.

same assay, conditions: first compound 0.03162 µM

**Q.** RERF-LC-KJ was tested. Which relative viability did it give?
**A.** The relative viability was 1.07.

**Q.** SK-LU-1 was tested. Which relative viability did it give?
**A.** The relative viability was 0.584.

**Q.** Which relative viability does the source give for SK-MES-1 here?
**A.** The relative viability was 0.932.

**Q.** SW 1573 was tested. Which relative viability did it give?
**A.** The relative viability was 1.09.

**Q.** With UMC-11 as the cell line, how does the relative viability read?
**A.** Its relative viability is 0.961.

same assay, conditions: first compound 0.1 µM

**Q.** How did the relative viability turn out when RERF-LC-KJ was run?
**A.** Its relative viability is 0.923.

**Q.** How did the relative viability turn out when SK-LU-1 was run?
**A.** The relative viability was 0.951.

**Q.** SK-MES-1 was tested. Which relative viability did it give?
**A.** Its relative viability is 0.946.

**Q.** SW 1573 was tested. Which relative viability did it give?
**A.** Its relative viability is 0.882.

**Q.** With UMC-11 as the cell line, how does the relative viability read?
**A.** Its relative viability is 0.963.

same assay, conditions: first compound 0.3162 µM

**Q.** With RERF-LC-KJ as the cell line, how does the relative viability read?
**A.** The relative viability was 0.858.

**Q.** With SK-LU-1 as the cell line, how does the relative viability read?
**A.** The relative viability was 0.896.

**Q.** Which relative viability does the source give for SK-MES-1 here?
**A.** Its relative viability is 0.949.

**Q.** For SW 1573, which relative viability is on record?
**A.** The relative viability was 0.952.

**Q.** Which relative viability does the source give for UMC-11 here?
**A.** The relative viability was 1.11.

same assay, conditions: first compound 1 µM

**Q.** With RERF-LC-KJ as the cell line, how does the relative viability read?
**A.** Its relative viability is 0.938.

**Q.** For SK-LU-1, which relative viability is on record?
**A.** The relative viability was 1.03.

**Q.** How did the relative viability turn out when SK-MES-1 was run?
**A.** Its relative viability is 1.18.

**Q.** With SW 1573 as the cell line, how does the relative viability read?
**A.** The relative viability was 0.86.

**Q.** How did the relative viability turn out when UMC-11 was run?
**A.** Its relative viability is 0.972.

compound: COc1nc(N)nc2c1ncn2[C@@H]1O[C@H](CO)[C@@H](O)[C@@H]1O [Nelarabine] + Nc1nc2[nH]cc(CCc3ccc(C(=O)N[C@@H](CCC(=O)O)C(=O)O)cc3)c2c(=O)[nH]1 [Pemetrexed] (partner 0.2 µM); assay: as above; details: first compound 0.01 µM
How it was run: as §1

**Q.** Which relative viability does the source give for RERF-LC-KJ here?
**A.** The relative viability was 0.477.

**Q.** SK-LU-1 was tested. Which relative viability did it give?
**A.** The relative viability was 1.19.

**Q.** Which relative viability does the source give for SK-MES-1 here?
**A.** The relative viability was 1.17.

**Q.** How did the relative viability turn out when SW 1573 was run?
**A.** Its relative viability is 0.957.

**Q.** How did the relative viability turn out when UMC-11 was run?
**A.** The relative viability was 0.992.

same assay, conditions: first compound 0.03162 µM

**Q.** For RERF-LC-KJ, which relative viability is on record?
**A.** Its relative viability is 0.424.

**Q.** Which relative viability does the source give for SK-LU-1 here?
**A.** Its relative viability is 0.796.

**Q.** Which relative viability does the source give for SK-MES-1 here?
**A.** Its relative viability is 0.951.

**Q.** For SW 1573, which relative viability is on record?
**A.** Its relative viability is 0.908.

**Q.** UMC-11 was tested. Which relative viability did it give?
**A.** Its relative viability is 0.696.

same assay, conditions: first compound 0.1 µM

**Q.** For RERF-LC-KJ, which relative viability is on record?
**A.** The relative viability was 0.458.

**Q.** For SK-LU-1, which relative viability is on record?
**A.** Its relative viability is 1.06.

**Q.** SK-MES-1 was tested. Which relative viability did it give?
**A.** Its relative viability is 0.957.

**Q.** With SW 1573 as the cell line, how does the relative viability read?
**A.** Its relative viability is 1.01.

**Q.** Which relative viability does the source give for UMC-11 here?
**A.** Its relative viability is 0.94.

same assay, conditions: first compound 0.3162 µM

**Q.** For RERF-LC-KJ, which relative viability is on record?
**A.** Its relative viability is 0.489.

**Q.** Which relative viability does the source give for SK-LU-1 here?
**A.** The relative viability was 0.995.

**Q.** With SK-MES-1 as the cell line, how does the relative viability read?
**A.** Its relative viability is 1.03.

**Q.** Which relative viability does the source give for SW 1573 here?
**A.** Its relative viability is 0.838.

**Q.** Which relative viability does the source give for UMC-11 here?
**A.** The relative viability was 0.816.

same assay, conditions: first compound 1 µM

**Q.** For RERF-LC-KJ, which relative viability is on record?
**A.** Its relative viability is 0.49.

**Q.** SK-LU-1 was tested. Which relative viability did it give?
**A.** Its relative viability is 1.04.

**Q.** With SK-MES-1 as the cell line, how does the relative viability read?
**A.** Its relative viability is 1.07.

**Q.** With SW 1573 as the cell line, how does the relative viability read?
**A.** Its relative viability is 0.877.

**Q.** Which relative viability does the source give for UMC-11 here?
**A.** Its relative viability is 0.884.

compound: COc1nc(N)nc2c1ncn2[C@@H]1O[C@H](CO)[C@@H](O)[C@@H]1O [Nelarabine] + CC1(C)CCC(c2ccc(Cl)cc2)=C(CN2CCN(c3ccc(C(=O)NS(=O)(=O)c4ccc(N[C@H](CCN5CCOCC5)CSc5ccccc5)c(S(=O)(=O)C(F)(F)F)c4)cc3)CC2)C1 [Navitoclax] (partner 0.5 µM); assay: as above; details: first compound 0.01 µM
How it was run: as §1

**Q.** With RERF-LC-KJ as the cell line, how does the relative viability read?
**A.** The relative viability was 0.859.

**Q.** With SK-LU-1 as the cell line, how does the relative viability read?
**A.** The relative viability was 0.773.

**Q.** SK-MES-1 was tested. Which relative viability did it give?
**A.** The relative viability was 1.36.

**Q.** With SW 1573 as the cell line, how does the relative viability read?
**A.** The relative viability was 1.14.

**Q.** For UMC-11, which relative viability is on record?
**A.** Its relative viability is 0.291.

same assay, conditions: first compound 0.03162 µM

**Q.** For RERF-LC-KJ, which relative viability is on record?
**A.** Its relative viability is 1.12.

**Q.** With SK-LU-1 as the cell line, how does the relative viability read?
**A.** The relative viability was 0.485.

**Q.** SK-MES-1 was tested. Which relative viability did it give?
**A.** Its relative viability is 1.55.

**Q.** SW 1573 was tested. Which relative viability did it give?
**A.** Its relative viability is 1.26.

**Q.** With UMC-11 as the cell line, how does the relative viability read?
**A.** The relative viability was 0.277.

same assay, conditions: first compound 0.1 µM

**Q.** For RERF-LC-KJ, which relative viability is on record?
**A.** The relative viability was 0.901.

**Q.** With SK-LU-1 as the cell line, how does the relative viability read?
**A.** Its relative viability is 0.84.

**Q.** With SK-MES-1 as the cell line, how does the relative viability read?
**A.** Its relative viability is 1.13.

**Q.** SW 1573 was tested. Which relative viability did it give?
**A.** Its relative viability is 1.02.

**Q.** UMC-11 was tested. Which relative viability did it give?
**A.** Its relative viability is 0.307.

same assay, conditions: first compound 0.3162 µM

**Q.** Which relative viability does the source give for RERF-LC-KJ here?
**A.** The relative viability was 1.08.

**Q.** With SK-LU-1 as the cell line, how does the relative viability read?
**A.** The relative viability was 0.79.

**Q.** Which relative viability does the source give for SK-MES-1 here?
**A.** Its relative viability is 1.09.

**Q.** With SW 1573 as the cell line, how does the relative viability read?
**A.** Its relative viability is 0.98.

**Q.** Which relative viability does the source give for UMC-11 here?
**A.** Its relative viability is 0.306.

same assay, conditions: first compound 1 µM

**Q.** How did the relative viability turn out when RERF-LC-KJ was run?
**A.** Its relative viability is 0.783.

**Q.** Which relative viability does the source give for SK-LU-1 here?
**A.** Its relative viability is 0.79.

**Q.** For SK-MES-1, which relative viability is on record?
**A.** Its relative viability is 1.29.

**Q.** SW 1573 was tested. Which relative viability did it give?
**A.** The relative viability was 1.03.

**Q.** How did the relative viability turn out when UMC-11 was run?
**A.** The relative viability was 0.313.
